Target: KRAS (aa 1-169) G12C, C51S, C80L, C118S (Homo sapiens (Human), UniProt P01116, C118S/C51S/C80L/G12C)
Assay: Biochemical functional assay: SOS1-mediated nucleotide exchange of GDP-loaded KRAS G12C, binding to GST-cRaf RBD, FRET readout
Conditions: 3 hrs pre-incubation with compound at 24° C., SOS1, GTPyS, inhibition of nucleotide exchange
How it was run: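 GDP-loaded His-tagged KRAS construct preincubated with compound 3 h at 24° C in 25 mM HEPES pH7.5, 10 mM MgCl2, 0.01% Triton X-100; SOS1 (aa 564-1049), GTPγS and GST-cRaf RBD added for 3 h, then anti-His Tb cryptate/anti-GST XL665 for 3 h. HTRF 665/620 ratio; IC50 by four-parameter logistic fit.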

KRAS (aa 1-169) G12C, C51S, C80L, C118S, sequence (P01116 other isoform, or with tags, fused parts or gaps G12C/C51S/C80L/C118S): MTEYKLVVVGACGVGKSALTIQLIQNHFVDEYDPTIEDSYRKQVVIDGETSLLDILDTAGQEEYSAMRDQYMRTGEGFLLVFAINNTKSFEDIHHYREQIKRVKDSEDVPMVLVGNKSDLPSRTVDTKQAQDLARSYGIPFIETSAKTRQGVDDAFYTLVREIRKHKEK

| SMILES | IC50 [nM] |
| --- | --- |
| C=CC(=O)N1CCN(c2nc(OC[C@@H]3C[C@@H](F)CN3C)nc3cc(N4CCCc5ccccc54)c4c(c23)OCCC4)CC1 [Compound B27, 1-(4-(5-(3,4-dihydroquinolin-1(2H)-yl)-8-(((2S,4R)-4-fluoro-1-methylpyrrolidin-2-yl)methoxy)-3,4-dihydro-2H-pyrano[2,3-f]quinazolin-10-yl)piperazin-1-yl)prop-2-en-1-one] | 321 |
| C=CC(=O)N1CCN(c2nc(OC[C@@H]3CCCN3C)nc3cc(-c4c(Cl)c(C)cc5[nH]ncc45)c4c(c23)OCC4)CC1 [Compound B28, 1-(4-(4-(5-chloro-6-methyl-1H-indazol-4-yl)-7-(((S)-1-methylpyrrolidin-2-yl)methoxy)-2,3-dihydrofuro[2,3-f]quinazolin-9-yl)piperazin-1-yl)prop-2-en-1-one] | 113 |
| C=C(F)C(=O)N1CCN(c2nc(OC[C@@H]3CCCN3C)nc3cc(-c4ccc(F)c5sc(N)nc45)c4c(c23)OCCC4)C[C@@H]1CC#N [Compound B29, 2-((S)-4-(5-(2-amino-7-fluorobenzo[d]thiazol-4-yl)-8-(((S)-1-methylpyrrolidin-2-yl)methoxy)-3,4-dihydro-2H-pyrano[2,3-f]quinazolin-10-yl)-1-(2-fluoroacryloyl)piperazin-2-yl)acetonitrile] | 4.51 |
| C=C(F)C(=O)N1CCN(c2nc(OC[C@@H]3CCCN3C)nc3cc(-c4c(Cl)c(C)cc5[nH]ncc45)c4c(c23)OCC4)C[C@@H]1CC#N [Compound B30, 2-((2S)-4-(4-(5-chloro-6-methyl-1H-indazol-4-yl)-7-(((S)-1-methylpyrrolidin-2-yl)methoxy)-2,3-dihydrofuro[2,3-f]quinazolin-9-yl)-1-(2-fluoroacryloyl)piperazin-2-yl)acetonitrile] | 9.6 |
| C=C(F)C(=O)N1CCN(c2nc(OC[C@@H]3CCCN3C)nc3cc(-c4ccccc4F)c4c(c23)OCCC4)C[C@@H]1CC#N [Compound B31, 2-((S)-1-(2-fluoroacryloyl)-4-(5-(2-fluorophenyl)-8-(((S)-1-methylpyrrolidin-2-yl)methoxy)-3,4-dihydro-2H-pyrano[2,3-f]quinazolin-10-yl)piperazin-2-yl)acetonitrile] | 984 |
| C=C(F)C(=O)N1CCN(c2nc(OC[C@@H]3CCCN3C)nc3cc(-c4ccccc4C4CC4)c4c(c23)OCCC4)C[C@@H]1CC#N [Compound B32, 2-((S)-4-(5-(2-cyclopropylphenyl)-8-(((S)-1-methylpyrrolidin-2-yl)methoxy)-3,4-dihydro-2H-pyrano[2,3-f]quinazolin-10-yl)-1-(2-fluoroacryloyl)piperazin-2-yl)acetonitrile] | 226 |
| C=C(F)C(=O)N1CCN(c2nc(OC[C@@H]3CCCN3C)nc3cc(-c4ccccc4C(F)(F)F)c4c(c23)OCCC4)C[C@@H]1CC#N [Compound B33, 2-((S)-1-(2-fluoroacryloyl)-4-(8-(((S)-1-methylpyrrolidin-2-yl)methoxy)-5-(2-(trifluoromethyl)phenyl)-3,4-dihydro-2H-pyrano[2,3-f]quinazolin-10-yl)piperazin-2-yl)acetonitrile] | 51 |
| C=CC(=O)N1CCN(c2nc(OC[C@@H]3CCCN3C)nc3cc(-c4c(Cl)c(C)cc5[nH]ncc45)c4ccoc4c23)CC1 [Compound B34, 1-(4-(4-(5-chloro-6-methyl-1H-indazol-4-yl)-7-(((S)-1-methylpyrrolidin-2-yl)methoxy)furo[2,3-f]quinazolin-9-yl)piperazin-1-yl)prop-2-en-1-one] | 65 |
| C=C(F)C(=O)N1CCN(c2nc(OC[C@@H]3CCCN3C)nc3cc(-c4c(Cl)c(C)cc5[nH]ncc45)c4ccoc4c23)C[C@@H]1CC#N [Compound B35, 2-((2S)-4-(4-(5-chloro-6-methyl-1H-indazol-4-yl)-7-(((S)-1-methylpyrrolidin-2-yl)methoxy)furo[2,3-f]quinazolin-9-yl)-1-(2-fluoroacryloyl)piperazin-2-yl)acetonitrile] | 8.4 |
| C=C(F)C(=O)N1CCN(c2nc(OC[C@@H]3CCCN3C)nc3cc(-c4c(Cl)c(Cl)cc5[nH]ncc45)c4c(c23)OCCC4)C[C@@H]1CC#N [Compound B36, 2-((2S)-4-(5-(5,6-dichloro-1H-indazol-4-yl)-8-(((S)-1-methylpyrrolidin-2-yl)methoxy)-3,4-dihydro-2H-pyrano[2,3-f]quinazolin-10-yl)-1-(2-fluoroacryloyl)piperazin-2-yl)acetonitrile] | 47 |
| C=C(F)C(=O)N1CCN(c2nc(OC[C@@H]3CCCN3C)nc3cc(-c4cccc5cccc(F)c45)c4c(c23)OCCC4)C[C@@H]1CC#N [Compound B37, 2-((S)-1-(2-fluoroacryloyl)-4-(5-(8-fluoronaphthalen-1-yl)-8-(((S)-1-methylpyrrolidin-2-yl)methoxy)-3,4-dihydro-2H-pyrano[2,3-f]quinazolin-10-yl)piperazin-2-yl)acetonitrile] | 8 |
| C=C(F)C(=O)N1CCN(c2nc(OC[C@@H]3CCCN3C)nc3cc(-c4c(F)cccc4F)c4ccoc4c23)C[C@@H]1CC#N [Compound B38, 2-((S)-4-(4-(2,6-difluorophenyl)-7-(((S)-1-methylpyrrolidin-2-yl)methoxy)furo[2,3-f]quinazolin-9-yl)-1-(2-fluoroacryloyl)piperazin-2-yl)acetonitrile] | 913 |
| C=C(F)C(=O)N1CCN(c2nc(OC[C@@H]3CCCN3C)nc3cc(-c4c(O)cccc4F)c4ccoc4c23)C[C@@H]1CC#N [Compound B39, 2-((2S)-4-(4-(2-fluoro-6-hydroxyphenyl)-7-(((S)-1-methylpyrrolidin-2-yl)methoxy)furo[2,3-f]quinazolin-9-yl)-1-(2-fluoroacryloyl)piperazin-2-yl)acetonitrile] | 1040 |
| C=C(F)C(=O)N1CCN(c2nc(OC[C@@H]3CCCN3C)nc3cc(-c4ccccc4C(F)(F)F)c4ccoc4c23)C[C@@H]1CC#N [Compound B40, 2-((S)-1-(2-fluoroacryloyl)-4-(7-(((S)-1-methylpyrrolidin-2-yl)methoxy)-4-(2-(trifluoromethyl)phenyl)furo[2,3-f]quinazolin-9-yl)piperazin-2-yl)acetonitrile] | 14 |
| C=C(F)C(=O)N1CCN(c2nc(OC[C@@H]3CCCN3C)nc3cc(-c4cccc5cccc(Cl)c45)c4ccoc4c23)C[C@@H]1CC#N [Compound B41, 2-((S)-4-(4-(8-chloronaphthalen-1-yl)-7-(((S)-1-methylpyrrolidin-2-yl)methoxy)furo[2,3-f]quinazolin-9-yl)-1-(2-fluoroacryloyl)piperazin-2-yl)acetonitrile] | 3.8 |
| C=C(F)C(=O)N1CCN(c2nc(OC[C@@H]3CCCN3C)nc3cc(-c4c(F)c(Cl)cc5[nH]ncc45)c4c(c23)OCCC4)C[C@@H]1CC#N [Compound B42, 2-((2S)-4-(5-(6-chloro-5-fluoro-1H-indazol-4-yl)-8-(((S)-1-methylpyrrolidin-2-yl)methoxy)-3,4-dihydro-2H-pyrano[2,3-f]quinazolin-10-yl)-1-(2-fluoroacryloyl)piperazin-2-yl)acetonitrile] | 43 |
| C=C(F)C(=O)N1CCN(c2nc(OC[C@@H]3CCCN3C)nc3cc(-c4cccc5cccc(C)c45)c4c(c23)OCCC4)C[C@@H]1CC#N [Compound B43, 2-((S)-1-(2-fluoroacryloyl)-4-(5-(8-methylnaphthalen-1-yl)-8-(((S)-1-methylpyrrolidin-2-yl)methoxy)-3,4-dihydro-2H-pyrano[2,3-f]quinazolin-10-yl)piperazin-2-yl)acetonitrile] | 13 |

From patent US20240166660A1, “KRAS G12C INHIBITORS” (BeiGene Switzerland GmbH, priority 2021, published 2024)
